Test results from patent US5604214A, “Reduction of boar odor in meat” (Pfizer Inc., priority 1993, dated 1997).

Test system: boar salivary gland steroid 5-α-reductase (boar 4-ene-5-α-reductase enzyme)
Assay: Boar steroid 5α-reductase enzyme activity and inhibitor potency assay ([14C]testosterone conversion, boar salivary gland microsomes)
Type: biochemical
Conditions: 500 nM compound, 37° C., 30 minutes
Procedure: Microsomal preparations from boar salivary glands were prepared by the protocol desbribed by Liang, et al. for human prostatic microsomal 5-α-reductase.
Assay for enzyme activity and inhibitor potency.
A constant amount of [^14 C]testosterone (50 to 55 mCi/mmol) in ethanol and varying amounts of potential inhibitor (or no inhibitor i.e. control) in ethanol were deposited in test tubes and concentrated to dryness in vacuo. Assays for boar steroid 5α-reductase enzyme were conducted with a sample of the boar salivary gland 5-α-reductase in 50 mM phosphate buffer, pH 7.5 or in 50 mM citrate buffer at pH 5.0. To each tube was added buffer, 40 μl of microsomal preparation from boar salivary glands (hereinafter boar salivary gland steroid 5-α-reductase) and 20 μl of 20 mM NADPH to a final volume of 0.5 mL.
After incubating the solution at 37° C. for 30 minutes the reaction was quenched by the addition of 4 mL ethyl acetate and 0.25 μmol each of testosterone, 5α-dihydrotestosterone, androstanediol, and androstanedione as carriers. The organic layer was removed to a second test tube and evaporated to dryness in a Speed Vac. The residue was dissolved in 40 μL chloroform, spotted on an individual lane of a 20×20 cm prechannelled silica gel TLC plate (Si 250F-PA, Baker Chemical) and developed twice with acetone:chloroform (1:9). The radiochemical content in the bands of the substrate and the products was determined with a BIOSCAN Imaging Scanner (Bioscan Inc., Washington, D.C.). The percent of recovered radiolabel converted to product was calculated, from which enzyme activity was determined. All incubations were conducted such that no more than 20% of the substrate (testosterone) was consumed.
By following the above procedure in the absence of an inhibitor (i.e. control) a significant formation of 5-α-dihydrotestosterone, and the androstanediols occurred which indicated the presence of a high level of 4-ene-5-α-reductase enzyme activity in the microsomes prepared from the salivary glands of the boar.

[1] = pH 7.5 (50 mM phosphate buffer)

Row | inhibition of the boar 5-α-reductase enzyme (vs. control) [1] | SMILES | inhibition of the boar 5-α-reductase enzyme (vs. control) (pH 5 (50 mM citrate buffer))
1 | 50% | CC(C)(C)NC(=O)[C@H]1CC[C@H]2[C@@H]3CC[C@H]4NC(=O)C=C[C@]4(C)[C@H]3CC[C@]12C [17β-(N-t-butylcarbamoyl)-4-aza-5α-androst-1-en-3-one] | –
2 | 50% | CC(C)(C)NC(=O)[C@H]1CC[C@H]2[C@@H]3CC=C4C=C(C(=O)O)CC[C@]4(C)[C@H]3CC[C@]12C [17β-(N-t-butylcarboxamide)-androst-3,5-diene-3-carboxylic acid] | –

Row | SMILES | inhibition of the boar 5-α-reductase enzyme (vs. control) [1] | inhibition of the boar 5-α-reductase enzyme (vs. control) (pH 5 (50 mM citrate buffer))
3 | CC(C)(C)NC(=O)[C@H]1CC[C@H]2[C@@H]3CCc4cc(C(=O)O)ccc4[C@H]3CC[C@]12C [17β-(N-t-butylcarboxamide)-estr-1,3,5(10)triene-3-carboxylic acid] | 80% | ~65%
